In patent US11236047B2 (ASTEX THERAPEUTICS LIMITED, priority 2017, dated 2022):
pIC50: −log10 of the molar value. Where two headings read alike, the source gives them in different places.

Assays:
MDM2-p53 interaction = MDM2-p53 interaction (Homo sapiens (Human), UniProt Q00987); settings: for inhibition at 0.001 µM: read-out: MDM2 % inhibition @0.0010; for inhibition at 0.1 µM: read-out: MDM2 % inhibition @0.10
Procedure: MDM2-053 Interaction Using a 96-Well Plate Binding Assay (ELISA)
The ELISA assay was performed in streptavidin coated plates which were preincubated with 200 μl per well of 1 μg ml^−1 biotinylated IP3 peptide. The plates were ready to use for MDM2 binding after washing the plate with PBS.
The bound HRP activity was measured by enhanced chemiluminesence (ECL™, Amersham Biosciences) using the oxidation of the diacylhydrazide substrate, luminol, to generate a quantifiable light signal. The percentage of MDM2 inhibition at a given concentration is calculated as the [1−(RLU detected in the compound treated sample−RLU negative DMSO control)÷(RLU of DMSO positive and negative controls)]×100 or as the (RLU detected in the compound treated sample÷RLU of DMSO controls)×100. The IC50 was calculated using a plot of % MDM2 inhibition vs concentration and is the average of two or three independent experiments.

SJSA-1 cells = assay: Protocol B: SJSA-1 CellTiter-Glo luminescent cell viability assay; settings: for pIC50: read-out: SJSA1 IC50, Protocol B, SJSA-1; for IC50: Homo sapiens, SJSA-1, read-out: SJSA1 IC50 (μM), Protocol B, SJSA-1
SN40R2 cells = assay: Protocol B: SN40R2 CellTiter-Glo luminescent cell viability assay; settings: for inhibition at 10 µM: read-out: SN40R2 % inhibition at 10

Chain of MDM2-p53 interaction (Q00987 whole entry): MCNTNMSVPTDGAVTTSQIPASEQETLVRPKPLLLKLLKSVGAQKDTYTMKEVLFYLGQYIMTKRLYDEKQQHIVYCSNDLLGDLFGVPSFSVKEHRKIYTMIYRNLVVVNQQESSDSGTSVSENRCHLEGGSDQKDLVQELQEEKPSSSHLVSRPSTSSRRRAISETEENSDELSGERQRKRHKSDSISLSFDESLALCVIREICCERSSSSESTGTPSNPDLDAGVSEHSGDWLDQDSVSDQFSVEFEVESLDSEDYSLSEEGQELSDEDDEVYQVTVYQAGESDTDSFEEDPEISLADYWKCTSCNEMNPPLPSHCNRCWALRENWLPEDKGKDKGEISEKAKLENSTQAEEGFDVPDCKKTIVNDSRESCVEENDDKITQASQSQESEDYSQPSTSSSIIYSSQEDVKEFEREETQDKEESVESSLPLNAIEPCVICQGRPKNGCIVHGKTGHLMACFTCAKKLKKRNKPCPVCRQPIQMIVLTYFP

With CO[C@]1(c2ccc(Cl)cc2)c2ccc(C(C)(O)C(=O)NCCN(C)C)cc2C(=O)N1Cc1ccc(Cl)cn1 (single isomer, unassigned) [Example 149] the “MDM2 % at stated concentration” value (MDM2-p53 interaction; at 1.0 μM) was 53%@1.0.
CO[C@]1(c2ccc(Cl)cc2)c2ccc(C(C)(O)C(=O)NCCN(C)C)cc2C(=O)N1Cc1ccc(Cl)cn1 (single isomer, unassigned) [Example 150] was tested, and the “MDM2 % at stated concentration” value (MDM2-p53 interaction; at 0.10 μM) was 49%@0.10.
In the case of CC(=O)N1CCC(C(C)(O)c2cc(F)c3c(c2)C(=O)N(Cc2ccc(Cl)cn2)[C@@]3(OCC2(C#N)CC2)c2ccc(Cl)cc2)CC1 (single isomer, unassigned) [Example 301], the “MDM2 % at stated concentration” value (MDM2-p53 interaction) was 75%@0.0010.
For Cn1cc(C(C)(O)c2cc(F)c3c(c2)C(=O)N(Cc2ccc(Cl)c[n+]2[O-])[C@@]3(OCC2(CO)CC2)c2ccc(Cl)cc2)cn1 (single isomer, unassigned) [Example 407], the “MDM2 % at stated concentration” value (MDM2-p53 interaction) was 62%@0.0010.
For CO[C@]1(c2ccc(Cl)cc2)c2c(F)cc(C(C)(O)c3cnn(C4CN(C(=O)OC(C)(C)C)C4)c3)cc2C(=O)N1Cc1ccc(Cl)cn1 (single isomer, unassigned) [Example 458], the inhibition at 0.01 µM (MDM2-p53 interaction; read-out: MDM2 % inhibition @0.010) was 44%.
CCC(O)(c1cc(F)c2c(c1)C(=O)N(Cc1ccc(C#N)cn1)[C@@]2(OC[C@@H](C)O)c1ccc(Cl)cc1)C1(F)CCOCC1 (single isomer, unassigned) [Example 497] showed an inhibition at 0.001 µM (MDM2-p53 interaction) of 83%.
For CCC(O)(c1cc(F)c2c(c1)C(=O)N(Cc1ccc(C#N)cn1)[C@@]2(OCCO)c1ccc(Cl)cc1)C1(F)CCOCC1 (single isomer, unassigned) [Example 499], the inhibition at 0.001 µM (MDM2-p53 interaction) was 68%.
In the case of CC(C)(O)c1cc(F)c2c(c1)C(=O)N(Cc1ccc(Cl)cn1)[C@@]2(OCC1(CNCCO)CC1)c1ccc(Cl)cc1 [Example 326, (3R)-3-(4-chlorophenyl)-2-[(5-chloropyridin-2-yl)methyl]-4-fluoro-3-[(1-{[(2-hydroxyethyl)amino]methyl}cyclopropyl)methoxy]-6-(2-hydroxypropan-2-yl)-2,3-dihydro-1H-isoindol-1-one], the “MDM2 % at stated concentration” value (MDM2-p53 interaction; at 0.030 μM) was 50%@0.030.
CC(C)(O)c1cc(F)c2c(c1)C(=O)N([C@H](c1ccc(Cl)cn1)C(O)CO)[C@@]2(OCC1(O)CC1)c1ccc(Cl)cc1 (stereo partly drawn) [Example 331, (3R)-3-(4-Chlorophenyl)-2-[(1R)-1-(5-chloropyridin-2-yl)-2,3-dihydroxypropyl]-4-fluoro-3-[(1-hydroxycyclopropyl)methoxy]-6-(2-hydroxypropan-2-yl)-2,3-dihydro-1H-isoindol-1-one] was tested, and the “MDM2 % at stated concentration” value (MDM2-p53 interaction; at 0.030 μM) was 49%@0.030.
In the case of Cn1cc(C(O)(c2cc(F)c3c(c2)C(=O)N(Cc2ccc(C#N)cn2)[C@@]3(O[C@H]2CCOC2)c2ccc(Cl)cc2)C(F)(F)F)cn1 (stereo partly drawn) [Example 371, 6-{[(1R)-1-(4-chlorophenyl)-7-fluoro-3-oxo-1-[(3S)-oxolan-3-yloxy]-5-[2,2,2-trifluoro-1-hydroxy-1-(1-methyl-1H-pyrazol-4-yl)ethyl]-2,3-dihydro-1H-isoindol-2-yl]methyl}pyridine-3-carbonitrile], the inhibition at 0.03 µM (MDM2-p53 interaction; read-out: MDM2 % inhibition @0.030) was 43%.
Compound CCC(O)(c1cc(F)c2c(c1)C(=O)N(Cc1ccc(C#N)cn1)[C@@]2(OCCOC)c1ccc(Cl)cc1)c1cn(C)cn1 (stereo partly drawn) [Example 429, 6-{[(1R)-1-(4-chlorophenyl)-7-fluoro-5-[1-hydroxy-1-(1-methyl-1H-imidazol-4-yl)propyl]-1-(2-methoxyethoxy)-3-oxo-2,3-dihydro-1H-isoindol-2-yl]methyl}pyridine-3-carbonitrile] has an inhibition at 0.1 µM (MDM2-p53 interaction) of 65%.
With [2H]C([2H])(O)C1(C([2H])([2H])O[C@]2(c3ccc(Cl)cc3)c3c(F)cc(C(O)(CC)c4cn(C)cn4)cc3C(=O)N2Cc2ccc(C#N)cn2)CC1 (stereo partly drawn) [Example 439, 6-{[(1R)-1-(4-chlorophenyl)-7-fluoro-1-({1-[hydroxy(^2H2)methyl]cyclopropyl}(^2H2)methoxy)-5-[1-hydroxy-1-(1-methyl-1H-imidazol-4-yl)propyl]-3-oxo-2,3-dihydro-1H-isoindol-2-yl]methyl}pyridine-3-carbonitrile] the pIC50 (SJSA-1 cells) was 7.52 and the inhibition at 10 µM (SN40R2 cells) was 3%.
For [2H]C([2H])(O)C1(C([2H])([2H])O[C@]2(c3ccc(Cl)cc3)c3c(F)cc(C(C)(C)C4(F)CCOCC4)cc3C(=O)N2Cc2ncc(Cl)cn2)CC1 [Example 447, (3R)-3-(4-Chlorophenyl)-2-[(5-chloropyrimidin-2-yl)methyl]-4-fluoro-6-[1-(4-fluorooxan-4-yl)-1-hydroxyethyl]-3-({1-[hydroxy(^2H2)methyl]cyclopropyl}(^2H2)methoxy)-2,3-dihydro-1H-isoindol-1-one], the IC50 (SJSA-1 cells) was 0.011 µM and the inhibition at 10 µM (SN40R2 cells) was 10%.
For CO[C@]1(c2ccc(Cl)cc2)c2c(F)cc(C(C)(O)c3cnn(C4CN(C(=O)OC(C)(C)C)C4)c3)cc2C(=O)N1Cc1ccc(Cl)cn1 (stereo partly drawn) [Example 457, tert-Butyl 3-(4-{1-[(1R)-1-(4-chlorophenyl)-2-[(5-chloropyridin-2-yl)methyl]-7-fluoro-1-methoxy-3-oxo-2,3-dihydro-1H-isoindol-5-yl]-1-hydroxyethyl}-1H-pyrazol-1-yl)azetidine-1-carboxylate], the inhibition at 0.3 µM (MDM2-p53 interaction; read-out: MDM2 % inhibition @0.30) was 53%.
In the case of CCC(O)(c1cc(F)c2c(c1)C(=O)N(Cc1ncc(C#N)cn1)[C@@]2(OCC1(C#N)CC1)c1ccc(Cl)cc1)c1cn(C)cn1 (stereo partly drawn) [Example 463, 2-{[(1R)-1-(4-chlorophenyl)-1-[(1-cyanocyclopropyl)methoxy]-7-fluoro-5-[1-hydroxy-1-(1-methyl-1H-imidazol-4-yl)propyl]-3-oxo-2,3-dihydro-1H-isoindol-2-yl]methyl}pyrimidine-5-carbonitrile], the inhibition at 0.1 µM (MDM2-p53 interaction) was 73%.
For CCC(O)(c1cc(F)c2c(c1)C(=O)N(Cc1ncc(Cl)cn1)[C@@]2(O[C@H]1C[C@@H](O)C1)c1ccc(Cl)cc1)c1cn(C)cn1 (stereo partly drawn) [Example 464, (3R)-3-(4-chlorophenyl)-2-[(5-chloropyrimidin-2-yl)methyl]-4-fluoro-6-[1-hydroxy-1-(1-methyl-1H-imidazol-4-yl)propyl]-3-[cis-3-hydroxycyclobutoxy]-2,3-dihydro-1H-isoindol-1-one], the IC50 (SJSA-1 cells) was 0.18 µM and the inhibition at 10 µM (SN40R2 cells) was 46%.
With Cn1cnc(C(C)(O)c2cc(F)c3c(c2)C(=O)N(Cc2ncc(C#N)cn2)[C@@]3(OCC2(F)COC2)c2ccc(Cl)cc2)c1 (stereo partly drawn) [Example 468, 2-{[(1R)-1-(4-chlorophenyl)-7-fluoro-1-[(3-fluorooxetan-3-yl)methoxy]-5-[1-hydroxy-1-(1-methyl-1H-imidazol-4-yl)ethyl]-3-oxo-2,3-dihydro-1H-isoindol-2-yl]methyl}pyrimidine-5-carbonitrile] the IC50 (SJSA-1 cells) was 0.48 µM and the inhibition at 10 µM (SN40R2 cells) was 2%.
CCC(O)(c1cc(F)c2c(c1)C(=O)N(Cc1ncc(C#N)cn1)[C@@]2(OCC1(F)COC1)c1ccc(Cl)cc1)c1cn(C)cn1 (stereo partly drawn) [Example 470, 2-{[(1R)-1-(4-chlorophenyl)-7-fluoro-1-[(3-fluorooxetan-3-yl)methoxy]-5-[1-hydroxy-1-(1-methyl-1H-imidazol-4-yl)propyl]-3-oxo-2,3-dihydro-1H-isoindol-2-yl]methyl}pyrimidine-5-carbonitrile] was tested, and the pIC50 (SJSA-1 cells) was 7.00 and the inhibition at 10 µM (SN40R2 cells) was 3%.
For CCCC(O)(c1cc(F)c2c(c1)C(=O)N(Cc1ccc(C#N)cn1)[C@@]2(O[C@H]1CCOC1)c1ccc(Cl)cc1)c1cn(C)cn1 (stereo partly drawn) [Example 473, 6-{[(1R)-1-(4-chlorophenyl)-7-fluoro-5-[1-hydroxy-1-(1-methyl-1H-imidazol-4-yl)butyl]-3-oxo-1-[(3S)-oxolan-3-yloxy]-2,3-dihydro-1H-isoindol-2-yl]methyl}pyridine-3-carbonitrile], the inhibition at 0.1 µM (MDM2-p53 interaction) was 44%.
CCC(O)(c1cc(F)c2c(c1)C(=O)N(Cc1ncc(C#N)cn1)[C@@]2(O[C@H]1CCOC1)c1ccc(Cl)cc1)c1ccn(C)n1 (stereo partly drawn) [Example 490, 2-{[(1R)-1-(4-chlorophenyl)-7-fluoro-5-[1-hydroxy-1-(1-methyl-1H-pyrazol-3-yl)propyl]-3-oxo-1-[(3S)-oxolan-3-yloxy]-2,3-dihydro-1H-isoindol-2-yl]methyl}pyrimidine-5-carbonitrile] gave a pIC50 (SJSA-1 cells) of 6.57 and an inhibition at 10 µM (SN40R2 cells) of 0%.
CC[C@@](O)(c1cc(F)c2c(c1)C(=O)N(Cc1ncc(Cl)cn1)[C@@]2(OCCO)c1ccc(Cl)cc1)C1(F)CCOCC1 [Example 501, (3R)-3-(4-chlorophenyl)-2-[(5-chloropyrimidin-2-yl)methyl]-4-fluoro-6-[(1R)-1-(4-fluorooxan-4-yl)-1-hydroxypropyl]-3-(2-hydroxyethoxy)-2,3-dihydro-1H-isoindol-1-one] was tested, and the IC50 (SJSA-1 cells) was 0.022 µM and the inhibition at 3 µM (SN40R2 cells; read-out: SN40R2 % inhibition at 3) was 8%.
CC[C@@](O)(c1cc(F)c2c(c1)C(=O)N(Cc1ncc(C#N)cn1)[C@@]2(OCCO)c1ccc(Cl)cc1)C1(F)CCOCC1 [Example 509, 2-{[(1R)-1-(4-chlorophenyl)-7-fluoro-5-[(1R)-1-(4-fluorooxan-4-yl)-1-hydroxypropyl]-1-(2-hydroxyethoxy)-3-oxo-2,3-dihydro-1H-isoindol-2-yl]methyl}pyrimidine-5-carbonitrile] showed an IC50 (SJSA-1 cells) of 0.042 µM and an inhibition at 10 µM (SN40R2 cells) of 6%.
CCC(O)(c1cc(F)c2c(c1)C(=O)N(Cc1ncc(C#N)cn1)[C@@]2(OC[C@@H](C)O)c1ccc(Cl)cc1)[C@H]1CC[C@H](O)CC1 (stereo partly drawn) [Example 512, 2-{[(1R)-1-(4-chlorophenyl)-7-fluoro-5-{1-hydroxy-1-[trans-4-hydroxycyclohexyl]propyl}-1-[(2R)-2-hydroxypropoxy]-3-oxo-2,3-dihydro-1H-isoindol-2-yl]methyl}pyrimidine-5-carbonitrile] showed an IC50 (SJSA-1 cells) of 0.025 µM and an inhibition at 10 µM (SN40R2 cells) of 5%.
For CC(O)(c1cc(F)c2c(c1)C(=O)N(Cc1ncc(Cl)cn1)[C@@]2(OCCO)c1ccc(Cl)cc1)C1(F)CCOCC1 (stereo partly drawn) [Example 578, (3R)-3-(4-chlorophenyl)-2-[(5-chloropyrimidin-2-yl)methyl]-4-fluoro-6-[1-(4-fluorooxan-4-yl)-1-hydroxyethyl]-3-(2-hydroxyethoxy)-2,3-dihydro-1H-isoindol-1-one], the IC50 (SJSA-1 cells) was 0.12 µM and the inhibition at 10 µM (SN40R2 cells) was 4%.
